Experimental findings from patent US4931352A, “Antifungal fermentation product” (Merck & Co., Inc., priority 1989, dated 1990) are described below.

Each structure is given as a SMILES string. Starred links: 1 amine or outer side, 2 acyl side, 3 side chain; linkers in the order of their positions; H or OH if unused. Positions of bridges follow the written chain, without caps; N, C: chain ends. Non-standard residues stand in square brackets, D forms with d. Residues, ends and D or L forms follow the SMILES beside them. ξ: configuration not given here. *: point of attachment. ξOrn(4,5-diOH) = O=C(C(CC(O)C(O)N[*:3])N[*:1])[*:2]; ξhTyr(βξ-OH,γξ-OH) = NC(C(=O)O)C(O)C(O)c1ccc(O)cc1; ξPro(3ξ-OH,4ξ-Me) = CC1CNC(C(=O)O)C1O; X2 = NC(=O)CC(O)C(N[*:1])C(=O)[*:2]; X1 = CCC(C)CC(C)CCCCCCCCC(=O)*; Hyp = O=C(O)[CH]1C[CH](O)CN1

As usually defined, the MIC is the smallest concentration in the dilution series that meets the test's criterion for growth inhibition. Higher therefore signals weaker potency.

The test system of data set [1] is Candida albicans. Briefly: agar dilution assay (MIC), Candida albicans. The class given is cell-based. The settings on record: C. albicans strain MY1029; possible media interference with drug activity. The method, then:
(§1) The activity may be seen in an agar dilution assay employing a yeast nitrogen base dextrose agar medium. In carrying out the assay, Compound I was solubilized in 10 percent dimethyl sulfoxide (DMSO) supplemented with one drop of Tween 20. Twofold dilutions were made with sterile distilled water/10 percent DMSO to obtain final drug concentrations in the agar dilution assay plates ranging from 128 to 0.06 μg/ml.
(§2) The yeast cultures, maintained in yeast maltose (YM) broth, were transferred to fresh YM medium and incubated overnight at 35° C. with shaking (250 rpm). After incubation, each culture was diluted in sterile saline to yield a final concentration of 3×10^5 to 3×10^6 colony forming units (CFU)/ml.
(§3) Each prepared plate was inoculated using a Denley Multipoint Inoculator (Denley, Sussex, England) which delivers approximately 0.001 milliliter to the ar surface resulting in inoculation of from 3×10^2 to 3×10^3 CFUs. The plates were incubated at 28° C. for 48 hours. The minimum inhibitory concentrations (MICs) were recorded as the lowest concentrations of drug showing no growth or less than three CFU/spot.

The subject of data set [2] is Candida albicans. Briefly: similar assay (MIC), expanded panel of 34 strains of Candida albicans. Type of data set: cell-based. The settings on record: 48 h; only against 5 of 34 strains of Candida albicans. The method, then: as §1, §2, §3
In a similar assay, Compound I was tested against an expanded panel of 34 different strains of Candida albicans and 13 different strains of Candida parapsilosis.

Another data set can be described thus: in vitro. The class given is cell-based. The note with it: mouse; fresh blood of CD-1 female mice; 25° C., two hours; highest drug concentration that did not lyse the red blood cells; tested 0.39 to 400 μg/ml in 5 percent dextrose; read-out: minimum lytic concentration (MLC). As for the experimental part:
The property of Compound I of requiring concentration of drug far above the therapeutic dose levels to effect red blood cell lysis was discovered in a standard titration/hemolysis assay using fresh blood drawn from CD-1 female mice. Concentration of drug in the range of from 0.39 to 400 μg/ml in 5 percent dextrose and a drug free control were employed.
In carrying out the determination, the assay tubes prepared by mixing together 2 milliliters of appropriate drug dilution and 0.5 milliliter of red blood cell suspension were gently shaken to mix the contents and then the tubes were incubated at 25° C. for two hours. At the end of this time, the tubes were examined visually for complete or partial red blood cell hemolysis and compared to a drug free control. […] The MLC for Compound I was 400 μg/ml.

Data set [3] has as its system Candida albicans. Description: mice infected with Candida albicans. The class given is in vivo.
The test system of data set [4] is filamentous fungi Cochliobolus miyabeanus, Penicillium sp. (three strains), Aspergillus niger, Trichoderma sp., Trichoderma liqnorum, Alternaria solani …. Description: disc diffusion method, filamentous fungi. The note with it: 25 microliter/disc, 28° C. or 37° C., 24 hours. Type of data set: cell-based. The method, then:
(§4) This may be seen in an antifungal assay employing a disc diffusion method against yeasts and filamentous fungi (molds).
(§5) In the disc diffusion method, seeded assay plates are first prepared in one of the following manners according to the type of organism.
Inocula for filamentous fungi are prepared by scraping the surface of stock plates maintained on potato dextrose agar with a moistened sterile dacron swab. The spores and mycelia are then suspended in 10 milliliters of sterile potato dextrose broth and adjusted to 70 percent transmission at 660 nm.
(§6) For three strains of Candida albicans and one strain of Saccharomyces cerevisiae, sterile saline is employed in place of potato dextrose broth. Assay plates are prepared by diluting the inoculum into appropriate molten agar medium, cooled to 45° C. to obtain a final concentration of 4 percent (volume/volume).
(§7) The seeded agar media thus prepared are dispensed into petri dishes for assays (11 milliliters per dish).
The samples to be tested for production of antifungal agent are applied to 6.2 mm. filter paper discs (25 microliter/disc) and air dried at 24° C. When the sample to be tested is a crude broth, it may be centrifuged prior to application. […] Following incubation, the inhibition zones are measured and recorded.
(In general: Agar diffusion results depend on both activity and mobility in agar.)

In data set [5] the test system is yeasts Saccharomyces cerevisiae, Candida albicans, Candida rugosa, Brettanomyces bruxellensis, Torulospora hansenii, Candida guilliermondii, Candida …. Description: disc diffusion method, yeasts. The class given is cell-based. The settings on record: 25 microliter/disc, 28° C. or 37° C., 24 hours. The method, then: as §4, §5
Inocula for yeasts are prepared from overnight broth cultures then diluted into potato dextrose […] to a final concentration of either 40 percent or 70 percent transmission at 660 nm.
as §6, §7
The samples to be tested for production of antifungal agent are applied to 6.2 mm. filter paper discs (25 microliter/disc) and air dried at 24° C. When the sample to be tested is a crude broth, it may be centrifuged prior to application. The discs bearing the material to be tested are then applied employing sterile conditions to the seeded assay plates and the samples rewet with 25 percent sterile aqueous dimethylsulfoxide (25 μl/disc). […] Following incubation, the inhibition zones are measured and recorded.

The nature of data set [6]: solubility in organic solvents. The settings on record: methanol, ethanol, dimethylformamide, dimethyl sulfoxide, ethyl acetate and the like.

As for `CCC(C)CC(C)CCCCCCCCC(=O)NC1CC(O)C(O)NC(=O)C2C(O)C(C)CN2C(=O)C(C(O)CC(N)=O)NC(=O)C(C(O)C(O)c2ccc(O)cc2)NC(=O)C2CC(O)CN2C(=O)C(C(C)O)NC1=O` [Compound I, 1-[(4R, 5R)-4,5-dihydroxy-N^2-(10,12-dimethyl-1-oxotetradecyl)-L-ornithine]-5-(threo-3-hydroxy-L-glutamine)echinocandin B] (X1-[ξOrn(4,5-diOH)]T[Hyp][ξhTyr(βξ-OH,γξ-OH)][X2][ξPro(3ξ-OH,4ξ-Me)]; lactam 1-C; configuration not given here), the “growth observed (footnote to MIC)” value in the data set on Candida albicans [1] is listed as “Substantially reduced growth was observed”. Also, the minimal inhibitory concentration (MIC) against Candida albicans [2] was above 1 µg/mL. For the same compound, the MNTC at 2 h in the data set “in vitro” is 400 µg/mL. Also, the “eradication of Candida albicans from kidneys” value with Candida albicans [3] (kidneys of experimentally infected mice) is “eradicate Candida albicans from kidneys”. For the same compound, in the data set with Candida albicans [3] (mice infected with Candida albicans), the “survival of mice infected with Candida albicans” value was “significantly prolong the survival”. For the same compound, the “antifungal properties (inhibition zones)” value in data set [4] and in data set [5] was “good antifungal properties” in each case. Besides, the “solubility in organic solvents” value in data set [6] is “soluble”.
